Read-outs that look alike come from different tables or passages of the source.
Columns and labels:
[1] = tested on: HCT116 (human colon carcinoma); test: Alamar blue cytotoxicity assay, HCT116; format: cell-based; conditions: HCT-116, 72 h incubation
Protocol: (§1) The in vitro cytotoxic activity of the compounds (Table 1) was evaluated against cancer cell lines HCT116 (human colon carcinoma), HepG2 (human hepatocellular carcinoma), B16F10 (murine melanoma carcinoma) and non-cancerous cell line MRC-5 (human lung fibroblast) using the Alamar blue assay after 72 h of incubation; doxorubicin (DOX) was used as a positive control. The unsubstituted derivatives on the acridine cores were encoded as CL, and the disubstituted derivatives as DL.
(§2) The human cancer cell lines HCT116 (colon carcinoma) and HepG2 (hepatocellular carcinoma), the mouse cancer cell line B16-F10 (melanoma), and the non-cancerous human cell line MRC-5 (lung fibroblast) were obtained from the American Type Culture Collection (ATCC, Manassas, VA, USA) and cultured according to the ATCC animal cell culture guide. All cell lines tested negative for mycoplasma using a mycoplasma stain kit.
(§3) Cell viability was measured using the Alamar blue assay, as previously described. Cells were seeded in 96-well plates for all experiments. The compounds were dissolved in dimethyl sulfoxide (DMSO, Sigma-Aldrich) and added to each well in eight serial concentrations ranging from 0.19 to 25 μg/mL. As a positive control, doxorubicin was used. After 72 h of treatment, 20 μL of resazurin (0.312 mg/mL) was added to each well. A SpectraMax 190 Micro-plate Reader was used to measure absorbances at 570 and 595 nm (Molecular Devices, Sunnyvale, CA, USA). Nonlinear regression with 95% confidence intervals (CI 95%) was used to calculate the inhibitory concentration of 50% (IC50) using GraphPad Prism software (Intuitive Software for Science; San Diego, CA, USA).

[2] = tested on: MRC-5 (human lung fibroblast); test: Alamar blue cytotoxicity assay, non-cancerous MRC-5; format: cell-based; conditions: MRC5, 72 h incubation, non-cancerous cell
Protocol: as §1, §2, §3

[3] = tested on: Swiss mice; test: Acute toxicity study (14 days), OECD guideline 423; format: in vivo; conditions: for Organ mass Heart (g) / Organ mass Kidneys (g) / Organ mass Lungs (g) / Organ mass Speleen (g) / Organ mass Liver (g): after acute toxicity study; for Organ mass Heart (g) / Organ mass Kidneys (g) / Organ mass Lungs (g) / Organ mass Speleen (g) / Food (g/day) / Water (mL/day) / Weight gain (g) / Organ mass Liver (g): 2000 mg/kg oral; for Food (g/day) / Water (mL/day) / Weight gain (g): during acute toxicity study; for DA/TA (dead animals/total animals) / Mortality (%) / Signs of Toxicity: single oral dose 2000 mg/kg, female mice, 14 days
Protocol: Based on the low selectivity found in the in vitro cytotoxicity, we decided to perform a preclinical in vivo toxicological analysis on mice to understand the pharmacological profiles of the derivatives described herein. After oral administration of acridine–thiosemicarbazone derivatives to female mice, possible adverse clinical signs and mortality in the groups of animals submitted to the acute toxicity study were recorded (Table 6), as well as absolute body mass, food and water consumption, and the average masses of the organs of the animals treated with the compounds and the control group.
An acute toxicity study was conducted according to Organization for Economic Co-operation and Development (OECD) guideline 423 (OECD 2001) with modifications (National Health Surveillance Agency Brazil, 2013). In principle, the method is not intended to allow an accurate calculation of the lethal dose (LD50), despite providing an estimate of its value; however, it allows a classification of the substance into categories according to the Globally Harmonized Classification System (GHS). The tests were carried out with the consent of the ethics council of the State University of Paraiba (process no. 008/2021, approved 9 November 2021). Swiss mice, three females per group, were subjected to single oral doses of 2000 mg/kg of acridine–thiosemicarbazone derivatives, and to the control group, we administered only the vehicle (12% Tween 80 solution in saline).
After the end of treatment with acridine–thiosemicarbazone derivatives, the animals were anesthetized with a xylazine–ketamine solution of 0.2 mL/100 g (8.75 mL ketamine (100 mg/mL) and 1.25 mL xylazine (10 mg/mL)) as per Cornell University/Cornell Center for Animal Resources and Education protocol described by Flecknell (1996). After euthanasia, a macroscopic assessment of the external body surface, cavities (thoracic, abdominal and cranial) and organs (change in position, shape, size, color and consistency) was carried out. The absolute and relative weights of the brain, lungs, liver, heart, spleen and kidneys were also determined. Relative weight was calculated using the formula: relative organ weight (%) = (weight of organ/weight of mouse) × 100 [88, 89].

[4] = tested on: K-562 cells; test: MTT cytotoxicity assay on leukemic cells, K562; format: cell-based; conditions: Homo sapiens
Protocol: K562 (human erythroleukemic) and its multidrug-resistant counterpart, K562-Lucena 1, were obtained from the Tumor Immunology Laboratory (Federal University of Rio de Janeiro) (Rumjanek et al., 2001) and were cultured as recommended by Daflon-Yunes et al., 2013 [93, 106, 107].
CL-07, DL-01 and DL-08 compounds were evaluated for cell viability on K562 and K562-Lucena 1 cells using the colorimetric tetrazolium method (Mosmann, 1983). Cells were plated in 96-well plates. Compounds were dissolved in 1% (v/v) DMSO and RPMI-1640 medium (Sigma-Aldrich) in five serial concentrations from 1 to 50 µg/mL and were later added to each well and incubated for 72 h at 37 °C in a 5% CO2 humidified environment. As a positive control, 1 µM staurosporine was used. Then, the cells were treated with 20 µL of 5 mg/mL 3-(4,5-dimethylthiazol-2yl)-2,5-diphenyltetrazolium bromide solution (MTT solution in phosphate buffer solution) for 3 h. At the end of treatment, absorbances at 562 nm were measured using an iMark™ Microplate Absorbance Reader (iMark™, Hercules, CA, USA). Half-inhibitory concentration (IC50) was obtained by nonlinear regression with 95% confidence intervals (CI 95%) using GraphPad Prism software (Intuitive Software for Science; San Diego, CA, USA).

[5] = MTT, 72 h, read-out: IC50 K-562
[6] = range over both cell lines and both compounds, read-out: IC50 on leukemic cells (K-562 and K-562 Lucena 1)

Row | Structure (SMILES) | IC50 [1] [µM] | IC50 [2] [µM] | Organ mass Heart (g) [3] | Organ mass Kidneys (g) [3] | Organ mass Lungs (g) [3] | Organ mass Speleen (g) [3] | Food (g/day) [3] | Water (mL/day) [3] | Weight gain (g) [3] | DA/TA (dead animals/total animals) [3] | Mortality (%) [3] [%] | Signs of Toxicity [3] | IC50 [4, 5] [µM] | Organ mass Liver (g) [3] | IC50 [4, 6] [µM]
1 | Oc1ccc(/C=N/NC(=S)Nc2c3ccccc3nc3ccccc23)cc1 [CL-07, (E)-N-(acridin-9-yl)-2-(4-hydroxybenzylidene)hydrazine-1-carbothioamide] | 39.7 | 43.4 | 0,417±0,038 g | 1,308±0,099 g | 0,619±0,089 g | 0,574±0,061 g | 14,57±1,78 g/day | 23,57±1,34 mL/day | 1,33±0,27 g | 0/3 | 0 | None | 45.5 |  | 
2 | COc1ccc2nc3cc(Cl)ccc3c(NC(=S)N/N=C/c3ccccc3)c2c1 [DL-01, (E)-2-benzylidene-N-(6-chloro-2-methoxyacridin-9-yl)hydrazine-1-carbothioamide] | > 60 | 37 | 0,410±0,039 g | 1,338±0,091 g | 0,640±0,057 g | 0,551±0,037 g | 12,35±1,39 g/day | 23,71±1,26 mL/day | 0,69±0,58 g | 0/3 | 0 | Reduced feed consumption | 11.5 | 5,257±0,610 g | 11.5 to 17.3
3 | COc1ccc2nc3cc(Cl)ccc3c(NC(=S)N/N=C/c3cccc(O)c3)c2c1 [DL-08, (E)-N-(6-chloro-2-methoxyacridin-9-yl)-2-(3-hydroxybenzylidene)hydrazine-1-carbothioamide] | 24.2 | 14.4 | 0,427±0,035 g | 1,355±0,062 g | 0,646±0,032 g | 0,412±0,033 g | 15,21±0,97 g/day | 25,28±0,46 mL/day | 0,76±0,43 g | 0/3 | 0 | Hepatic steatosis | 17.3 | 5,619±0,259 g | 11.5 to 17.3
